Data from EP4603105A1, “PHARMACEUTICAL COMPOSITION CONTAINING CYCLIC COMPOUND HAVING SELECTIVE KRAS INHIBITORY EFFECT AGAINST HRAS AND NRAS” (CHUGAI SEIYAKU KABUSHIKI KAISHA, priority 2022, dated 2024).
Where a SMILES comes first, the peptide text is derived from it. Bridges are numbered along the chain shown (N, C = ends). [ ]: non-standard residue; d: D form. hPhe(3,5-F2-4-CF3) = N[C@@H](CCc1cc(F)c(C(F)(F)F)c(F)c1)C(=O)O; NPrPhe(4-CF3) = CCCN[C@@H](Cc1ccc(C(F)(F)F)cc1)C(=O)O; NMeGly(cPent) = CN[C@H](C(=O)O)C1CCCC1; αMeI = CC[C@H](C)[C@](C)(N)C(=O)O; NMeD = CN[C@@H](CC(=O)O)C(=O)O; NMeL = CN[C@@H](CC(C)C)C(=O)O; Sar = CNCC(=O)O

Assays:
[1] = target: GDP-bound NRAS wild-type protein (Homo sapiens, UniProt P01111); assay: Binding to NRAS by surface plasmon resonance (SPR), KD and KD ratio to KRAS
Chain of GDP-bound NRAS wild-type protein (P01111 whole entry): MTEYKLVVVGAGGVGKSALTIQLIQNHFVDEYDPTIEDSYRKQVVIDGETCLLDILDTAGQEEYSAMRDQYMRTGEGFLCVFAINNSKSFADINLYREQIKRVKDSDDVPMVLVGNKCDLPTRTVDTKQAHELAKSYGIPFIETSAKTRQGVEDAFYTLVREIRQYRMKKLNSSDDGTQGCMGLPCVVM
Summary of the method: (§1)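 Recombinant RAS proteins bearing a biotinylated Avi tag and loaded with GDP served as the captured ligand, recaptured fresh every cycle. Binding responses were referenced to an uncoated surface and a buffer-only blank cycle. Dissociation constants were obtained by 1:1 model fitting at 30°C.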

HRAS wild-type protein = HRAS wild-type protein (Homo sapiens, UniProt P01112); assay: Binding to HRAS by surface plasmon resonance (SPR), KD and KD ratio to KRAS
Chain of HRAS wild-type protein (P01112 whole entry): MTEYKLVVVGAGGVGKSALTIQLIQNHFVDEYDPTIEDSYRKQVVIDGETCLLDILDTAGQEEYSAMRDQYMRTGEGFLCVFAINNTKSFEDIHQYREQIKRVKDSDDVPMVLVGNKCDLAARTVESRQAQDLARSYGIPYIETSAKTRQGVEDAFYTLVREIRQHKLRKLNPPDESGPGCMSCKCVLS
Summary of the method: as §1

[2] = tested on: human lung cancer strain NCI-H441; type: cell-based
Summary of the method: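 Signal came from […] measured per well once the reagent was added. Beforehand, cells were cultured at 37°C and 5% carbon dioxide on a compound series serially diluted in dimethyl sulfoxide.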

[3] = ratio of the KD value with respect to GDP-bound NRAS wild-type protein to the KD value with respect to KRAS
[4] = ratio of the KD value with respect to HRAS wild-type protein to the KD value with respect to KRAS
[5] = ratio of KD for GDP-bound NRAS wild-type protein to KD for KRAS
[6] = ratio of KD for HRAS wild-type protein to KD for KRAS

SMILES | NRAS /KRAS ([1]; ratio of KD with respect to GDP-bound NRAS wild-type protein to KD with respect to KRAS) | HRAS /KRAS (HRAS wild-type protein; ratio of KD with respect to HRAS wild-type protein to KD with respect to KRAS) | IC50 [2] [µM] | NRAS /KRAS [1, 3] | HRAS /KRAS (HRAS wild-type protein; [4]) | NRAS /KRAS [1, 5] | HRAS /KRAS (HRAS wild-type protein; [6])
CCO[C@@H]1C[C@H]2C(=O)NC3(CCC3)C(=O)N(C)[C@@H](C3CCCC3)C(=O)N(C)[C@H](C(=O)N(C)CC)CC(=O)N(C)[C@@H](CC3CC3)C(=O)N[C@@H]([C@@H](C)CC)C(=O)N(C)CC(=O)N(C)[C@H]3C/C=C\CCN(C3=O)[C@@H](Cc3ccc(C(F)(F)F)cc3)C(=O)N(C)CC(=O)N[C@@H](CCc3cc(F)c(C(F)(F)F)c(F)c3)C(=O)N2C1 [PP1301] | A (a compound having 10 or more and less than 20 is denoted as A) | A (a compound having 10 or more and less than 20 is denoted as A) | 0.0047 | – | – | – | –
CCCN(C)C(=O)[C@@H]1CC(=O)N(C)[C@@H](C(C)C)C(=O)N[C@@H]([C@@H](C)CC)C(=O)N(C)CC(=O)N(C)[C@H]2C/C=C\CCN(C2=O)[C@@H](Cc2ccc(C(F)(F)F)cc2)C(=O)N(C)CC(=O)N[C@@H](CCc2ccc(C(F)(F)F)c(OC)c2)C(=O)N2C[C@H](OCC)C[C@H]2C(=O)NC2(CCC2)C(=O)N(C)[C@@H](C2CCCC2)C(=O)N1C [PP2020] | – | – | 0.0083 | A (a compound having 10 or more and less than 20 is denoted as A) | A (a compound having 10 or more and less than 20 is denoted as A) | – | –
CCC[C@H]1C(=O)N[C@@H]([C@@H](C)CC)C(=O)N(C2CC2)CC(=O)N(C)[C@H]2C/C=C\CCN(C2=O)[C@@H](Cc2ccc(C)cc2)C(=O)N(C)CC(=O)N[C@@H](CCc2ccc(C3CC3)c(Cl)c2)C(=O)N2C[C@H](OCC)C[C@H]2C(=O)NC2(CC(C)(C)C2)C(=O)N(C)[C@@H](C2CCCC2)C(=O)N(C)[C@H](C(=O)N(C)C)CC(=O)N1C [PP2885] | – | – | 0.0806 | – | – | A (a compound having 10 or more and less than 20 is denoted as A) | A (a compound having 10 or more and less than 20 is denoted as A)
CCCN1C(=O)CN(C)C(=O)CN(C)C(=O)[C@H]([C@@H](C)CC)NC(=O)[C@H](CC(C)C)N(C)C(=O)C[C@@H](C(=O)N(C)C)N(C)C(=O)[C@H](C2CCCC2)N(C)C(=O)[C@](C)([C@@H](C)CC)NC(=O)[C@@H]2CCCN2C(=O)[C@H](CCc2cc(F)c(C(F)(F)F)c(F)c2)NC(=O)CN(C)C(=O)[C@@H]1Cc1ccc(C(F)(F)F)cc1 [PP0736] ([NMeL]I[Sar][Sar][NPrPhe(4-CF3)][Sar][hPhe(3,5-F2-4-CF3)]P[αMeI][NMeGly(cPent)][NMeD]-NMe2; lactam N-11) | – | – | 0.13 | B (a compound having 3 or more and less than 10 is denoted as B) | C (A compound having a KD ratio of 0.1 or more and less than 3 is denoted as C) | – | –
CC[C@H](C)[C@@H]1NC(=O)[C@H](CC(C)C)N(C)C(=O)C[C@@H](C(=O)N2CCOCC2)N(C)C(=O)[C@H](C2CCCC2)N(C)C(=O)C2(CCC2)NC(=O)[C@@H]2[C@H](OC)CCN2C(=O)[C@H](CCc2cc(F)c(C(F)(F)F)c(F)c2)NC(=O)CN(C)C(=O)[C@H](Cc2ccc(C(F)(F)F)cc2)N2CCCC[C@@H](C2=O)N(C)C(=O)CN(C)C1=O [PP1078] | – | – | 0.61 | – | – | B (a compound having 3 or more and less than 10 is denoted as B) | B (a compound having 3 or more and less than 10 is denoted as B)
C#CC[C@H]1C(=O)N[C@@H]([C@@H](C)CC)C(=O)N(C)CC(=O)N(C)[C@H]2C/C=C\CCN(C2=O)[C@@H](Cc2ccc(C(F)(F)F)cc2)C(=O)N(C)CC(=O)N[C@@H](CCc2ccc(C(F)(F)F)c(OC)c2)C(=O)N2C[C@@H](C)C[C@H]2C(=O)NC2(CCC2)C(=O)N(C)[C@@H](C2CCCC2)C(=O)N(C)[C@H](C(=O)N(C)CC)CC(=O)N1C [PP2061] | – | – | 0.0061 | AA (a compound having 20 or more is denoted as AA) | A (a compound having 10 or more and less than 20 is denoted as A) | – | –
